# Test results as given in patent publication US7718637B2, “(20S)-23,23-difluoro-methylene-19-nor-bishomopregnacalciferol-vitamin D analogs” (Wisconsin Alumni Research Foundation, priority 2007, dated 2010).
# Like-named read-outs stand apart in the source and are kept apart here.
# Key:
# [1] = Intestinal calcium transport (everted gut sac method) in vitamin D-deficient rats; format: in vivo, Sprague-Dawley rats; conditions: FIG. 5; for intestinal calcium transport: everted gut sac
# Experimental: (§1) Intestinal Calcium Transport and Bone Calcium Mobilization
# (§2) Male, weanling Sprague-Dawley rats were placed on Diet 11 (0.47% Ca) diet +AEK oil for one week followed by Diet 11 (0.02% Ca) +AEK oil for 3 weeks. The rats were then switched to a diet containing 0.47% Ca for one week followed by two weeks on a diet containing 0.02% Ca. Dose administration began during the last week on 0.02% calcium diet. Four consecutive ip doses were given approximately 24 hours apart. Twenty-four hours after the last dose, blood was collected from the severed neck and the concentration of serum calcium determined as a measure of bone calcium mobilization. The first 10 cm of the intestine was also collected for intestinal calcium transport analysis using the everted gut sac method.
# HL-60 cells = experiment: HL-60 differentiation (nitro blue tetrazolium reduction); format: cell-based, Human; conditions: FIG. 2; for EC50: HL-60 cells, read-out: EC50, HL-60 cell differentiation
# Experimental: The study drugs were dissolved in ethanol and the concentrations determined using UV spectrophotometry. Serial dilutions were prepared so that a range of drug concentrations could be tested without changing the final concentration of ethanol (≦0.2%) present in the cell cultures.
# Human promyelocytic leukemia (HL60) cells were grown in RPMI-1640 medium containing 10% fetal bovine serum. The cells were incubated at 37° C. in the presence of 5% CO2.
# HL60 cells were plated at 1.2×10^5 cells/ml. Eighteen hours after plating, cells in duplicate were treated with drug. Four days later, the cells were harvested and a nitro blue tetrazolium reduction assay was performed (Collins et al., 1979; J. Exp. Med. 149:969-974). The percentage of differentiated cells was determined by counting a total of 200 cells and recording the number that contained intracellular black-blue formazan deposits. Verification of differentiation to monocytic cells was determined by measuring phagocytic activity (data not shown).
# [2] = Bone calcium mobilization (serum calcium) in vitamin D-deficient rats; format: in vivo, Sprague-Dawley rats; conditions: FIG. 4
# Experimental: as §1, §2
# [3] = tested on: 24-hydroxylase (24Ohase) gene promoter in ROS 17/2.8 (bone) cells; experiment: In vitro transcription assay (24-hydroxylase promoter luciferase reporter); format: cell-based; conditions: FIG. 3; for EC50: ROS 17/2.8 cells, 24-hydroxylase promoter-luciferase, read-out: EC50, transcriptional activity in bone cells
# Experimental: In Vitro Transcription Assay
# Transcription activity was measured in ROS 17/2.8 (bone) cells that were stably transfected with a 24-hydroxylase (24Ohase) gene promoter upstream of a luciferase reporter gene (Arbour et al., 1998). Cells were given a range of doses. Sixteen hours after dosing the cells were harvested and luciferase activities were measured using a luminometer.
# RLU=relative luciferase units.
# [4] = target: T1, full-length recombinant rat vitamin D receptor (Rattus norvegicus, UniProt P13053); experiment: Vitamin D receptor binding (competition with [3H]-1,25(OH)2D3); conditions: full-length recombinant rat VDR; FIG. 1
# T1 construct: Full-length recombinant rat receptor was expressed in E. coli BL21 (DE3) Codon Plus RIL cells; histidine tag (C); made in house; host or cells: E. coli BL21 (DE3) Codon Plus RIL
# T1 sequence (P13053 1-423): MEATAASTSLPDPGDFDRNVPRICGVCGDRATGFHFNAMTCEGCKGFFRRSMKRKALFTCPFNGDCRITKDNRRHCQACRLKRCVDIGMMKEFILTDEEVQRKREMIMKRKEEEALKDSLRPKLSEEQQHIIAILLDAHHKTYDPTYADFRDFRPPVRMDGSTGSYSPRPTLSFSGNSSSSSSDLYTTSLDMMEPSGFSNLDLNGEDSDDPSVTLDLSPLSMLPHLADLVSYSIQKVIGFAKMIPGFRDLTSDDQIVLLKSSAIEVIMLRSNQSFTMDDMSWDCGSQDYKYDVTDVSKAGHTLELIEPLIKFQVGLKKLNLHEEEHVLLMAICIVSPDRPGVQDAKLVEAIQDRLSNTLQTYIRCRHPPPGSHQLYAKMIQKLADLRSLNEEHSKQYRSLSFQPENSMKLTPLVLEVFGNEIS
# Source text: Vitamin D Receptor Binding
# Full-length recombinant rat receptor was expressed in E. coli BL21 (DE3) Codon Plus RIL cells and purified to homogeneity using two different column chromatography systems. The first system was a nickel affinity resin that utilizes the C-terminal histidine tag on this protein. The protein that was eluted from this resin was further purified using ion exchange chromatography (S-Sepharose Fast Flow). Aliquots of the purified protein were quick frozen in liquid nitrogen and stored at −80° C. until use. For use in binding assays, the protein was diluted in TEDK50 (50 mM Tris, 1.5 mM EDTA, pH7.4, 5 mM DTT, 150 mM KCl) with 0.1% Chaps detergent. The receptor protein and ligand concentration were optimized such that no more than 20% of the added radiolabeled ligand was bound to the receptor.
# Radiolabeled and unlabeled ligands were added to 100 mcl of the diluted protein at a final ethanol concentration of ≦10%, mixed and incubated overnight on ice to reach binding equilibrium. The following day, 100 mcl of hydroxylapatite slurry (50%) was added to each tube and mixed at 10-minute intervals for 30 minutes. The hydroxylapaptite was collected by centrifugation and then washed three times with Tris-EDTA buffer (50 mM Tris, 1.5 mM EDTA, pH 7.4) containing 0.5% Titron X-100. […] Total binding was determined from the tubes containing only radiolabeled ligand.
Compound,intestinal calcium transport ([1]; 87 pmol/day),EC50 (HL-60 cells),"serum calcium levels (bone calcium mobilization) ([2]; native hormone, dose not given, vitamin D-deficient rats, 0.02% Ca diet)",EC50 [3],intestinal calcium transport ([1]; 2340 pmol/day),intestinal calcium transport ([1]; 35100 pmol/day),"intestinal calcium transport activity compared to 1,25(OH)2D3 (in words) ([1]; overall)","potency on HL-60 cell differentiation compared to 1,25(OH)2D3 (in words) (HL-60 cells)",EC50 (HL-60 cells; Homo sapiens),Ki [4],"binding to vitamin D receptor compared to standard 1,25-(OH)2D3 (in words) [4]","bone calcium mobilization ([2]; 2340 pmol/day ip for 4 consecutive days, vitamin D-deficient rats, 0.02% Ca diet)","bone calcium mobilization ([2]; 35100 pmol/day, vitamin D-deficient rats, 0.02% Ca diet)","bone calcium mobilization activity compared to 1,25(OH)2D3 (in words) ([2]; overall)","transcriptional activity in bone cells compared to 1α,25-dihydroxyvitamin D3 (in words) [3]"
"C=C1/C(=C\C=C2/CCC[C@]3(C)[C@@H]([C@H](C)CCCC(C)(C)O)CC[C@@H]23)C[C@@H](O)C[C@@H]1O [1α,25-dihydroxyvitamin D3, reference compound]",promotes a significant increase,3 nM,increased serum calcium levels,0.3 nM,–,–,–,–,–,–,–,–,–,–,–
"C=C1[C@H](O)CC(=C/C=C2\CCC[C@]3(C)[C@@H]([C@@H](C)CC(F)F)CC[C@@H]23)C[C@H]1O [FF-55, (20S)-23,23-difluoro-1α-hydroxy-2-methylene-19-nor-bishomopregnacalciferol]",–,–,–,3 nM,does not promote intestinal calcium transport,significant intestinal calcium transport activity,very little activity,"almost as potent as 1,25(OH)2D3",10 nM,0.05 nM,bound almost equally to the receptor,did not result in mobilization of bone calcium,without any effect,very little bone calcium mobilization activity,about the same transcriptional activity
